Holding throughout (format): physicochemical
A short description of data set [1]: Magnetic susceptibility by the Evans method (1H NMR shift of residual CDCl3 proton). Particulars: solution in CDCl3; for χmass: mass susceptibility; for χmol: molar susceptibility, χmol = MW*χmass. The source says:
For the prepared molecules of structure (I) in table 2 below, the paramagnetic properties have been evaluated by the Evans method [D.F. Evans, J. Chem. Soc. 2003 (1959)]. This is based on nuclear magnetic measurements (NMR), and relies on the fact that the chemical shift (position) of the ^1H NMR signals of a molecule depend on the bulk susceptibility of the medium. In particular, the resonance line of the residual proton of CDCl3 (i.e. the NMR solvent) was used as a reference, by comparing its chemical shift for the pure CDCl3 and for a solution containing the molecules of structure (I).
As expected the mass susceptibility of the different complexes (molecules of structure (I)) vary depending on mass ratio between the paramagnetic ion (e.g. Ho^3+) and the organic DTPA-ligand (thus, it is smaller for the bigger ligands). […] Magnetism and magnetic materials. Cambridge University Press, 2010]

Data set [2] in a line: Preparation of paramagnetic oil with paraffin (mineral) oil. To be noted: typically 10-30 wt%, as co-component. The method, then: The complex 3 (molecules of structure (I)) is dissolved in the minimum amount of dichloromethane, so to have a homogeneous solution, after that a fatty alcohol (e.g. isofol® 12) is added (typically 10-40 wt%), and the resultant mixture rotary evaporated under high vacuum to completely eliminate the volatile dichloromethane, resulting in the target homogeneous transparent paramagnetic oil.
The composition is prepared according to example 5.1 but using paraffin (mineral) oil (typically 10-30 wt%) as co-component instead of the fatty alcohol.
This method is particularly suitable when using complexes with long chains (preferably more than 8 carbon atoms).

The nature of data set [3]: Verdet coefficient measurement (magneto-optic, Faraday effect). Particulars: 1 M aqueous solution (control). How it is done:
The composition is prepared according to example 5.1 but using isofol 12 to obtain a weight fraction of 23 % w/w of isofol 12, where Tb^3+ is used as the paramagnetic ion in structure (I). The Verdet coefficient was determined to be 17.1 rad T^-1 m^-1 at 410 nm wavelength, and 8.0 rad T^-1 m^-1 at 600 nm. As a control a 1 M TbCl3 aqueous solution was measured using the same method resulting in a Verdet coefficient of 14.1 rad T^-1 m^-1 at 410 nm wavelength, and 4.9 rad T^-1 m^-1 at 600 nm in agreement with literature.

Take Ho-DTPA-(2-butyl-1-octanol)2: in data set [1], the χmass was 4.98 (cm^3 g^-1) /10-5 and the χmol amounted to 0.0350 cm^3 mol^-1.

As to Ho-DTPA-(2-octyl-1-dodecanol)2, in data set [1], the χmass is 3.72 (cm^3 g^-1) /10-5 and the χmol turned out to be 0.0415 cm^3 mol^-1.

Consider Ho-DTPA-(3,7-dimethy-1-octanol)2, for which, in data set [1], the χmass is given as 5.05 (cm^3 g^-1) /10-5 and the χmol is 0.0422 cm^3 mol^-1.

For Ho-DTPA-(1-octadecanol)2, the “appearance of composition with mineral oil” value in data set [2] is “homogeneous transparent fluid reacting to magnetic fields”.

For `[Cl][Tb]([Cl])[Cl]` [TbCl3], the figures for the Verdet coefficient in data set [3] (410 nm wavelength) and in data set [3] (600 nm) were 14.1 rad T^-1 m^-1 and 4.9 rad T^-1 m^-1, respectively.

Regarding `CC(=O)[O-].CC(=O)[O-].CC(=O)[O-].O.[Ho+3]` [Ho(AcO)3 *nH2O, reference compound], in data set [1], the χmass was 11.0 (cm^3 g^-1) /10-5 and the χmol stood at 0.037 cm^3 mol^-1.

With Ho-DTPA-(hexanol)2, in data set [1], the χmass is listed as 6.04 (cm^3 g^-1) /10-5 and the χmol was 0.0437 cm^3 mol^-1.

The record behind these values is patent EP3514141A1, “MAGNETIC MOLECULES” (Centre National de la Recherche Scientifique, priority 2018, dated 2019).
